The source of these data is PubChem BioAssay (NCI).

Structures are written as SMILES.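 Exposure lasted 48 hours, with cells grown in 96-well plates and compounds tested at five concentrations. The concentration for full growth arrest is given as TGI.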

Among the test systems are CAKI-1 renal; HCT-116 colon; HS 578T breast; IGROV1 ovarian; K-562 leukemia; KM12 colon; MDA-MB-435; NCI-H522 lung; SF-539 CNS; SNB-19 CNS; U251 CNS.
Common to all, as to experiment: NCI-60 cell line screen, 48 h

As to `CCO/C(O)=C(/C(=N)N1CCCC1)C(=O)Nc1cccc(C(F)(F)F)c1`, the TGI in the test with CAKI-1 renal is more than 100 µM; in the test on HCT-116 colon, more than 100 µM; with HS 578T breast, 70.6 µM; with IGROV1 ovarian it was more than 100 µM; in the test on K-562 leukemia it was more than 100 µM; with KM12 colon, more than 100 µM. Besides, the TGI in the test with MDA-MB-435 is more than 100 µM; with NCI-H522 lung, more than 100 µM; in the test on SF-539 CNS, 51.9 µM; with SNB-19 CNS it was more than 100 µM; in the test with U251 CNS, more than 100 µM.

For the compound `CC(=Nc1ccncc1)C(C)=Nc1ccncc1`, the TGI with CAKI-1 renal is 30.4 µM; in the test with HCT-116 colon, 83.9 µM; with HS 578T breast it was 98.9 µM; in the test with IGROV1 ovarian, 35.3 µM; with K-562 leukemia, more than 100 µM; with KM12 colon, more than 100 µM. In addition, the TGI in the test with MDA-MB-435 turned out to be 97.7 µM; with NCI-H522 lung, 35.3 µM; in the test with SF-539 CNS, 35.1 µM; in the test on SNB-19 CNS, 68.5 µM; in the test with U251 CNS, 69.1 µM.

Turning to `Cc1c2c(OCCCCN3CCN(c4ncccn4)CC3)nn(C)c(=O)c2c(C)n1-c1ccccc1`, the TGI with CAKI-1 renal is 35.3 µM; in the test on HCT-116 colon, 31.7 µM; with HS 578T breast, 67.8 µM; in the test on IGROV1 ovarian, 35 µM; with K-562 leukemia, more than 100 µM; in the test with KM12 colon, 43.1 µM. In addition, the TGI in the test with MDA-MB-435 worked out at 40.5 µM; in the test with NCI-H522 lung, 38.2 µM; with SF-539 CNS, 32.6 µM; with SNB-19 CNS it was 33.3 µM; in the test with U251 CNS it was 32 µM.

Regarding `NNc1nncn1N`, the TGI in the test on CAKI-1 renal, in the test with HCT-116 colon, in the test on HS 578T breast, with IGROV1 ovarian, with K-562 leukemia and in the test with KM12 colon was more than 100 µM each time. Besides, the TGI in the test with MDA-MB-435 was 36.3 µM; with NCI-H522 lung it was more than 100 µM; in the test on SF-539 CNS, more than 100 µM; with SNB-19 CNS, more than 100 µM; in the test with U251 CNS, more than 100 µM.

Turning to `C=C(C)C1CC=C(C)C2(C1)OCC(C)(C)C(C)O2` (stereo not drawn), the TGI in the test on CAKI-1 renal was 36.7 µM; with HCT-116 colon, 31.1 µM; in the test on HS 578T breast, more than 100 µM; in the test on IGROV1 ovarian it was 48.2 µM; in the test on K-562 leukemia it was 45.8 µM; in the test on KM12 colon it was 32.9 µM. In addition, the TGI in the test on MDA-MB-435 was found to be 48 µM; in the test on NCI-H522 lung, 46.4 µM; in the test with SF-539 CNS it was 48 µM; in the test on SNB-19 CNS it was 33.3 µM; in the test on U251 CNS it was 31 µM.

As to `c1ccc2c(Cc3nnc4sc(SSc5nn6c(Cc7c[nH]c8ccccc78)nnc6s5)nn34)c[nH]c2c1`, the TGI was determined as 62.6 µM with CAKI-1 renal; 29.4 µM with HCT-116 colon; 56.8 µM in the test with HS 578T breast; 27.6 µM in the test on IGROV1 ovarian; 46.5 µM in the test on K-562 leukemia; 70.3 µM in the test on KM12 colon. Further, the TGI in the test on MDA-MB-435 was 47.7 µM; with NCI-H522 lung, 40 µM; in the test with SF-539 CNS, 50.8 µM; with SNB-19 CNS it was more than 100 µM; in the test on U251 CNS, 58.6 µM.

For `O=C1/C(=C2\Sc3c(ccc(Cl)c3Cl)C2=O)Sc2c1ccc(Cl)c2Cl`, the TGI in the test with CAKI-1 renal, in the test with HCT-116 colon, in the test with HS 578T breast, in the test on IGROV1 ovarian, in the test on K-562 leukemia and in the test with KM12 colon was more than 100 µM in each case. Besides, the TGI in the test on MDA-MB-435, with NCI-H522 lung, with SF-539 CNS, in the test on SNB-19 CNS and in the test with U251 CNS was more than 100 µM throughout.

As to `CCOC(=O)C(CS)NC(=O)CCCCCCCC(=O)NC(CS)C(=O)OCC` (stereo not drawn), the TGI in the test on CAKI-1 renal, with HCT-116 colon, in the test with HS 578T breast, in the test on IGROV1 ovarian, in the test with K-562 leukemia and in the test with KM12 colon was more than 100 µM in each case. The TGI in the test on MDA-MB-435, in the test with NCI-H522 lung, in the test with SF-539 CNS, with SNB-19 CNS and with U251 CNS was more than 100 µM each time.

`C/C(O)=C/c1nc2ccc([N+](=O)[O-])cc2nc1/C=C(/C)O`: the TGI in the test on CAKI-1 renal was more than 100 µM; with HCT-116 colon it was more than 100 µM; in the test with HS 578T breast it was 85.3 µM; in the test with IGROV1 ovarian, more than 100 µM; in the test on K-562 leukemia it was more than 100 µM; in the test on KM12 colon, more than 100 µM. The TGI in the test with MDA-MB-435 was more than 100 µM; in the test on NCI-H522 lung, 70 µM; in the test with SF-539 CNS it was more than 100 µM; in the test with SNB-19 CNS it was more than 100 µM; in the test with U251 CNS, more than 100 µM.

For the compound `CC(C)N(C)C(=O)C12C3C4C1C1C2C3C41C#N` (stereo not drawn), the TGI in the test on CAKI-1 renal, in the test on HCT-116 colon, in the test with HS 578T breast, with IGROV1 ovarian, in the test with K-562 leukemia and in the test on KM12 colon was more than 100 µM each time. The TGI with MDA-MB-435, in the test on NCI-H522 lung, with SF-539 CNS, with SNB-19 CNS and with U251 CNS was more than 100 µM in each case.

For the compound `Cc1ccc(C(=O)/C(C#N)=C/Nc2c(C)n(C)n(-c3ccccc3)c2=O)cc1`, the TGI in the test on CAKI-1 renal, with HCT-116 colon, with HS 578T breast, in the test on IGROV1 ovarian, with K-562 leukemia and with KM12 colon was more than 100 µM in each case. Further, the TGI in the test with MDA-MB-435, with NCI-H522 lung, in the test on SF-539 CNS, in the test on SNB-19 CNS and in the test with U251 CNS was more than 100 µM throughout.

`CC(=O)c1cc2c(s1)C(=O)c1ccccc1C2=O`: the TGI in the test on CAKI-1 renal is 37 µM; with HCT-116 colon, more than 31.2 µM; in the test on HS 578T breast, more than 67.6 µM; with IGROV1 ovarian it was 5.5 µM; in the test on K-562 leukemia, more than 100 µM; in the test on KM12 colon, 11.5 µM. Also, the TGI in the test on MDA-MB-435 stood at 2.21 µM; in the test with NCI-H522 lung it was 3.5 µM; with SF-539 CNS it was 8.32 µM; with SNB-19 CNS, 5.57 µM; with U251 CNS, 17 µM.

Regarding `Cc1cc(=O)oc2cc(O)ccc12`, the TGI with CAKI-1 renal, with HCT-116 colon, in the test on HS 578T breast, with IGROV1 ovarian, in the test with K-562 leukemia and with KM12 colon was more than 100 µM each time. The TGI with MDA-MB-435, in the test with NCI-H522 lung, with SF-539 CNS, in the test with SNB-19 CNS and in the test with U251 CNS was more than 100 µM in each case.
